According to patent US8138168B1 (Takeda Pharmaceutical Company Limited, priority 2007, dated 2012):

What follows are compounds tested against T1, Recombinant human renin (Homo sapiens, UniProt P00797) (assay: In vitro enzymatic activity assay of renin inhibitors (fluorogenic peptide substrate)). Settings: read-out: IC50 of Exemplified Compounds Against Renin.
T1 construct: isolate the active form (residues 67-406); made in house; host or cells: FreeStyle 293-F cells (transient expression of pcDNA3.1(+)/hREN)
T1 sequence (P00797 67-406): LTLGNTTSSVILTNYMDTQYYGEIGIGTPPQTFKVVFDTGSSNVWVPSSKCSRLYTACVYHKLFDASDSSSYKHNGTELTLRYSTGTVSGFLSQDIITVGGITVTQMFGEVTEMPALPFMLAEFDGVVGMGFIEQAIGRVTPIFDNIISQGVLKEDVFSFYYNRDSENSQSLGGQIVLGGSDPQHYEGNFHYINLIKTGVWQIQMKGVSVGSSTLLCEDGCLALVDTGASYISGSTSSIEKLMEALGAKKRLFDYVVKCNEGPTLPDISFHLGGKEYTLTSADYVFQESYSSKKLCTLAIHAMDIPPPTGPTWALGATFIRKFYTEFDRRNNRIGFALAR
Type: biochemical
Outline: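 Enzyme: recombinant human renin, 3 nM final, 10 min compound pre-incubation at 37 °C; buffer 50 mM Hepes pH 7.4 with 0.1 mg/mL BSA or extra 2% BSA; 5% DMSO.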

Compound | IC50 [nM]
COCCCn1c([C@@H]2CCCN(C(=O)C[C@H](N)Cc3ccc(-c4ccccc4)cc3)C2)nc2c(Cl)cccc21 [Compound 118, (R)-3-amino-4-(biphenyl-4-yl)-1-((R)-3-(4-chloro-1-(3-methoxypropyl)-1H-benzo[d]imidazol-2-yl)piperidin-1-yl)butan-1-one] | < 100
COCCCn1c([C@@H]2CCCN(C(=O)C[C@H](N)c3cccnc3)C2)nc2ccccc21 [Compound 119, (S)-3-amino-1((R)-3-(1-(3-methoxypropyl)-1H-benzo[d]imidazol-2-yl)piperidin-1-yl)-3-(pyridin-3-yl)propan-1-one] | 100 to 1000
COCCCn1c([C@@H]2CCCN(C(=O)C[C@H](N)c3cnccc3OC)C2)nc2ccccc21 [Compound 120, (S)-3-Amino-1((R)-3-(1-(3-methoxypropyl)-1H-benzo[d]imidazol-2-yl)piperidin-1-yl)-3-(4-methoxypyridin-3-yl)propan-1-one] | > 1000
COCCCn1c([C@@H]2CCCN(C(=O)C[C@H](N)c3cccc(OC)c3)C2)nc2ccccc21 [Compound 121] | > 1000
COCCCn1c([C@@H]2CCCN(C(=O)C[C@H](N)Cc3cccc(-c4ccccc4)c3)C2)nc2ccccc21 [Compound 122, (R)-3-amino-4-(biphenyl-3-yl)-1-((R)-3-(1-(3-methoxypropyl)-1H-benzo[d]imidazol-2-yl)piperidin-1-yl)butan-1-one] | < 100
COCCCn1c([C@@H]2CCCN(C(=O)C[C@H](N)Cc3ccc(-c4ccc(C(=O)OC)cc4)cc3)C2)nc2ccccc21 [Compound 123, methyl 4′-((R)-2-amino-4-((R)-3-(1-(3-methoxypropyl)-1H-benzo[d]imidazol-2-yl)piperidin-1-yl)-4-oxobutyl)biphenyl-4-carboxylate] | < 100
COCCCn1c([C@@H]2CCCN(C(=O)C[C@H](N)Cc3ccc(-c4ccccc4)cc3)C2)nc2ccccc21 [Compound 124, (R)-3-amino-4-(biphenyl-4-yl)-1-((R)-3-(1-(3-methoxypropyl)-1H-benzo[d]imidazol-2-yl)piperidin-1-yl)butan-1-one] | < 100
COCCCn1c([C@@H]2CCCN(C(=O)C[C@H](N)Cc3ccc(-c4cccnc4)cc3)C2)nc2ccccc21 [Compound 125, (R)-3-amino-1-((R)-3-(1-(3-methoxypropyl)-1H-benzo[d]imidazol-2-yl)piperidin-1-yl)-4-(4-(pyridin-3-yl)phenyl)butan-1-one] | < 100
COCCCn1c([C@@H]2CCCN(C(=O)C[C@H](N)Cc3ccc(-c4ccncc4)cc3)C2)nc2ccccc21 [Compound 126, (R)-3-amino-1-((R)-3-(1-(3-methoxypropyl)-1H-benzo[d]imidazol-2-yl)piperidin-1-yl)-4-(4-(pyridin-4-yl)phenyl)butan-1-one] | < 100
COCCCn1c([C@@H]2CCCN(C(=O)C[C@H](N)Cc3ccc(-c4ccc(C(=O)N5CCOCC5)cc4)cc3)C2)nc2ccccc21 [Compound 127, (R)-3-amino-1-((R)-3-(1-(3-methoxypropyl)-1H-benzo[d]imidazol-2-yl)piperidin-1-yl)-4-(4′-(morpholine-4-carbonyl)biphenyl-4-yl)butan-1-one] | < 100
COCCCn1c([C@@H]2CCCN(C(=O)C[C@H](N)Cc3ccc(-c4ccc(N5CCOCC5)cc4)cc3)C2)nc2ccccc21 [Compound 128, (R)-3-amino-1-((R)-3-(1-(3-methoxypropyl)-1H-benzo[d]imidazol-2-yl)piperidin-1-yl)-4-(4′-morpholinobiphenyl-4-yl)butan-1-one] | < 100
COCCCn1c([C@@H]2CCCN(C(=O)C[C@H](N)Cc3ccc(-c4ccc(NC(C)=O)cc4)cc3)C2)nc2ccccc21 [Compound 129, N-(4′-((R)-2-amino-4-((R)-3-(1-(3-methoxypropyl)-1H-benzo[d]imidazol-2-yl)piperidin-1-yl)-4-oxobutyl)biphenyl-4-yl)acetamide] | < 100
COCCCn1c([C@@H]2CCCN(C(=O)C[C@H](N)Cc3ccc(-c4ccccc4COC)cc3)C2)nc2ccccc21 [Compound 130, (R)-3-amino-4-(2′-(methoxymethyl)biphenyl-4-yl)-1-((R)-3-(1-(3-methoxypropyl)-1H-benzo[d]imidazol-2-yl)piperidin-1-yl)butan-1-one] | < 100
COCCCn1c([C@@H]2CCCN(C(=O)C[C@H](N)Cc3ccc(-c4ccncc4Cl)cc3)C2)nc2ccccc21 [Compound 131, (R)-3-amino-4-(4-(3-chloropyridin-4-yl)phenyl)-1-((R)-3-(1-(3-methoxypropyl)-1H-benzo[d]imidazol-2-yl)piperidin-1-yl)butan-1-one] | < 100
COCCCn1c([C@@H]2CCCN(C(=O)C[C@H](N)Cc3ccc(-c4ccc(OC)nc4OC)cc3)C2)nc2ccccc21 [Compound 132, (R)-3-amino-4-(4-(2,6-dimethoxypyridin-3-yl)phenyl)-1-((R)-3-(1-(3-methoxypropyl)-1H-benzo[d]imidazol-2-yl)piperidin-1-yl)butan-1-one] | < 100
COCCCn1c([C@@H]2CCCN(C(=O)C[C@H](N)Cc3ccc(-c4ccnc(Cl)c4)cc3)C2)nc2ccccc21 [Compound 133, (R)-3-amino-4-(4-(2-chloropyridin-4-yl)phenyl)-1-((R)-3-(1-(3-methoxypropyl)-1H-benzo[d]imidazol-2-yl)piperidin-1-yl)butan-1-one] | < 100
COCCCn1c([C@@H]2CCCN(C(=O)C[C@H](N)Cc3ccc(-c4ccc(C(=O)NC5CC5)cc4)cc3)C2)nc2ccccc21 [Compound 134, 4′-((R)-2-amino-4-((R)-3-(1-(3-methoxypropyl)-1H-benzo[d]imidazol-2-yl)piperidin-1-yl)-4-oxobutyl)-N-cyclopropylbiphenyl-4-carboxamide] | < 100
COCCCn1c([C@@H]2CCCN(C(=O)C[C@H](N)Cc3ccc(-c4ccc(N5CCOCC5)nc4)cc3)C2)nc2ccccc21 [Compound 135, (R)-3-amino-1-((R)-3-(1-(3-methoxypropyl)-1H-benzo[d]imidazol-2-yl)piperidin-1-yl)-4-(4-(6-morpholinopyridin-3-yl)phenyl)butan-1-one] | < 100
COCCCn1c([C@@H]2CCCN(C(=O)C[C@H](N)Cc3ccc(-c4ccc(N)nc4)cc3)C2)nc2ccccc21 [Compound 136, (R)-3-amino-4-(4-(6-aminopyridin-3-yl)phenyl)-1-((R)-3-(1-(3-methoxypropyl)-1H-benzo[d]imidazol-2-yl)piperidin-1-yl)butan-1-one] | < 100
COCCCn1c([C@@H]2CCCN(C(=O)C[C@H](N)Cc3ccc(-c4c(C)n[nH]c4C)cc3)C2)nc2ccccc21 [Compound 137, (R)-3-amino-4-(4-(3,5-dimethyl-1H-pyrazol-4-yl)phenyl)-1-((R)-3-(1-(3-methoxypropyl)-1H-benzo[d]imidazol-2-yl)piperidin-1-yl)butan-1-one] | < 100
CCOc1ccc(-c2ccc(C[C@@H](N)CC(=O)N3CCC[C@@H](c4nc5ccccc5n4CCCOC)C3)cc2)cn1 [Compound 138, (R)-3-amino-4-(4-(6-ethoxypyridin-3-yl)phenyl)-1-((R)-3-(1-(3-methoxypropyl)-1H-benzo[d]imidazol-2-yl)piperidin-1-yl)butan-1-one] | < 100
COCCCn1c([C@@H]2CCCN(C(=O)C[C@H](N)Cc3ccc(-c4ccc5nccn5c4)cc3)C2)nc2ccccc21 [Compound 139, (R)-3-amino-4-(4-(imidazo[1,2-a]pyridin-6-yl)phenyl)-1-((R)-3-(1-(3-methoxypropyl)-1H-benzo[d]imidazol-2-yl)piperidin-1-yl)butan-1-one] | < 100
COCCCn1c([C@@H]2CCCN(C(=O)C[C@H](N)Cc3ccc(-c4ccc5nonc5c4)cc3)C2)nc2ccccc21 [Compound 140, (R)-3-amino-4-(4-(benzo[c][1,2,5]oxadiazol-5-yl)phenyl)-1-((R)-3-(1-(3-metboxypropyl)-1H-benzo[d]imidazol-2-yl)piperidin-1-yl)butan-1-one] | < 100
COCCCn1c([C@@H]2CCCN(C(=O)C[C@H](N)Cc3ccc(-c4ccn[nH]4)cc3)C2)nc2ccccc21 [Compound 141, (R)-4-(4-(1H-pyrazol-5-yl)phenyl)-3-amino-1-((R)-3-(1-(3-methoxypropyl)-1H-benzo[d]imidazol-2-yl)piperidin-1-yl)butan-1-one] | 100 to 1000
COCCCn1c([C@@H]2CCCN(C(=O)C[C@H](N)Cc3ccc(-c4ccc(OC(C)C)nc4)cc3)C2)nc2ccccc21 [Compound 142, (R)-3-amino-4-(4-(6-isopropoxypyridin-3-yl)phenyl)-1-((R)-3-(1-(3-methoxypropyl)-1H-benzo[d]imidazol-2-yl)piperidin-1-yl)butan-1-one] | < 100
COCCCn1c([C@@H]2CCCN(C(=O)C[C@H](N)Cc3ccc(-c4ccc(OCC5CC5)nc4)cc3)C2)nc2ccccc21 [Compound 143, (R)-3-amino-4-(4-(6-(cyclopropylmethoxy)pyridin-3-yl)phenyl)-1-((R)-3-(1-(3-methoxypropyl)-1H-benzo[d]imidazol-2-yl)piperidin-1-yl)butan-1-one] | < 100
COCCCn1c([C@@H]2CCCN(C(=O)C[C@H](N)Cc3ccc(-c4ccncc4OC)cc3)C2)nc2ccccc21 [Compound 144, (R)-3-amino-1-((R)-3-(1-(3-methoxypropyl)-1H-benzo[d]imidazol-2-yl)piperidin-1-yl)-4-(4-(3-methoxypyridin-4-yl)phenyl)butan-1-one] | < 100
